Results on 11 molecules are retold here after PMC9268591, “Anti-Inflammatory, Analgesic and Antioxidant Potential of New (2S,3S)-2-(4-isopropylbenzyl)-2-methyl-4-nitro-3-phenylbutanals and Their Corresponding Carboxylic Acids through In Vitro, In Silico and In Vivo Studies” (Molecules, 2022).

Structures are written as SMILES.

A short description of data set [1]: ABTS free radical scavenging assay. The method, then: The total antioxidant activity of test compound (HBH) was estimated using the 2, 2-azinobis [3-ethylbenzthiazoline]-6-sulfonic acid (ABTS). The 100 mL of ABTS solution (7 mM) was added to 100 mL of potassium persulfate ([…], 2.45 mM) solution, mixed, and kept in the dark for 12 h to generate free radicals. […]. Gallic acid at 2 mg/2 mL of water was used as a standard drug. Likewise, for the test sample, different concentrations (1000–62.5 μg/mL) of the […] were made for absorbance measurements at the same wavelength. The 300 μL of each test solution was added to 3 mL of ABTS solution to measure the absorbance at 745 nm through a UV-visible spectrophotometer. A similar volume of each standard solution was taken to determine the absorbance at the same wavelength. The ABTS percent scavenging potential was calculated via the above formula [45].

For a further data set, the target named is COX-1 (Homo sapiens, UniProt P23219). In words: Cyclooxygenase (COX-1) inhibition assay. The data set is classed as biochemical. The settings on record: read-out: IC50 ± SEM COX-1. As to the method: (§1) The COX-1 and 2 enzymes’ inhibitions assays on the synthesized compounds were carried out as per the standard reported method. Initially, the respective enzyme solution was prepared in a concentration of 300 units/mL. The enzyme activation was started with keeping 10 µL of enzyme solution in the cold for up to 10 min. To this enzyme solution was added the substrate solution in HCl (0.1 M Trish buffer with pH of 8.0). The co-factor 50 µL solution contained TMPD (N,N,N,N-tetramethyl-p-phenylenediamine dihydrochloride, 0.24 mM), hematin (1 mM) and glutathione (0.9 mM). […] The reaction was initiated by adding arachidonic acid (20 µL, 30 mM). The overall solution was incubated for five minutes. Afterwards, the absorbance was recorded on a UV-visible instrument at 570 nm. From the absorbance value of every sample, the percentage inhibition was calculated as per the standard method.

The next data set concerns the target T1, COX-2 (Homo sapiens, UniProt P35354).
T1 construct: purchased Sigma Aldrich Germany C0858
T1 sequence (P35354 18-604): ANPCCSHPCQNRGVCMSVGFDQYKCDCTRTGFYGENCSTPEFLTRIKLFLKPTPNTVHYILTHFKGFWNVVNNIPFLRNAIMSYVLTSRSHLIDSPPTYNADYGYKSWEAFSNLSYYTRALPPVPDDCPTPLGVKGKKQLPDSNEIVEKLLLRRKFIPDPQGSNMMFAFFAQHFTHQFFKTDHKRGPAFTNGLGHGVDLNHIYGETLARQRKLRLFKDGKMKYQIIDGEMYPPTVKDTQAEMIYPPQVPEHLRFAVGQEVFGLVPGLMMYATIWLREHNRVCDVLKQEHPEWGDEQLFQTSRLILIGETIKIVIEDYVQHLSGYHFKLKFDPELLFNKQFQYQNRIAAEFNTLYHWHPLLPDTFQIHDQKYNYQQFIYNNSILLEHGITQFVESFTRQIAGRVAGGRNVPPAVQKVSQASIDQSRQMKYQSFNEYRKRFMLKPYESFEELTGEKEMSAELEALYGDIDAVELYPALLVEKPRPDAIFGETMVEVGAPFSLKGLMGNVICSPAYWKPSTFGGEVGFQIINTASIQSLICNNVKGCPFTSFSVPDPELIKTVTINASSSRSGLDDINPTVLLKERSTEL
The data set can be described thus: Cyclooxygenase (COX-2) inhibition assay. The settings on record: for SI (calculated selectivity index): COX-2 selectivity over COX-1; for IC50: read-out: IC50 ± SEM COX-2. The format is biochemical. The method, then: as §1
Cyclooxygenase (COX-2) was acquired from human recombinant (Catalog No:C0858) and […]
co-factor substances in this study like N, N_, N_-tetramethyl-p-phenylenediamine […]
91- 7, GmbH USA). these all were purchased from Sigma Aldrich Germany. Buffer solution containing (KH2PO4 & K2HPO4), was of best quality with high purity. […]
was purchased from Pfizer Pharmaceutical and Libra (Pvt.) limited . Tramadol, Diclofenac was purchased from Alliance Pharmaceutical Pakistan.

Data set [2] can be described thus: DPPH free radical scavenging assay. As to the method:
The protocol of Brand-Williams et al. was used for the DPPH assay with some modifications. DPPH (4 mg) was dissolved in methanol (100 mL) to obtain a mixture of […] 1,1-diphenyl,2-picrylhydrazyl (DPPH). The stock solution of the various synthesized compounds was prepared in methanol with 1 mg/mL concentration. This stock solution was used to prepare different concentrations of test samples ranging within 1000–62.5 μg/mL. The 0.1 mL of each concentration (1000–62.5 μg/mL) was combined with the DPPH (3 mL) solution in methanol. The solution was kept at 23 °C for 15 min incubation, followed by the absorbance measurement deliberated at 517 nm. Gallic acid was used as a standard drug in this assay. The percentage DPPH radical scavenging potential was measured via the formula [44]: % radical scavenging potential=CAbs.−SAbs./CAbs.×100 where CAbs. is the absorbance of the control, and SAbs is the absorbance of test samples/standard.
Background: Loss of DPPH colour is used to gauge radical scavenging.

A further data set concerns the target T2, 5-LOX (Homo sapiens, UniProt P09917).
T2 construct: purchased Sigma Aldrich Germany 437996
T2 sequence (P09917 1-674): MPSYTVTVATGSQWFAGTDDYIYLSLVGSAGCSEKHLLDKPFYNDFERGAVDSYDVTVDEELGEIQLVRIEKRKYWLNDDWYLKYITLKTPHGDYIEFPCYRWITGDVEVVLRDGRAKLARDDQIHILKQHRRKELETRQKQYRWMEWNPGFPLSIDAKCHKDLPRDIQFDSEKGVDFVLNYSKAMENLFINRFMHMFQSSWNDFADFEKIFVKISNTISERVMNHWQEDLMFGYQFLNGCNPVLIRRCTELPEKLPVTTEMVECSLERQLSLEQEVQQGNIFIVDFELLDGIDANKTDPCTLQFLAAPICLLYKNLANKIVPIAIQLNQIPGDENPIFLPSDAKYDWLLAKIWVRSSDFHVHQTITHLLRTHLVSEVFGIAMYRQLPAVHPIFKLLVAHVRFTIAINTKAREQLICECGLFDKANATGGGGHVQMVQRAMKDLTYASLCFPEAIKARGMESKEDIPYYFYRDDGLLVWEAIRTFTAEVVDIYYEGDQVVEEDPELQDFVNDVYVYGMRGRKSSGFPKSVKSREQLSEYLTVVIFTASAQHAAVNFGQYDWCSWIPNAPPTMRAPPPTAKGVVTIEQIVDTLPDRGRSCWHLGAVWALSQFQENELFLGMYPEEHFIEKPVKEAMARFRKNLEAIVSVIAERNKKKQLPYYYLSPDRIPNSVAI
In words: 5-Lipoxygenase (5-LOX) inhibition assay. The format is biochemical. The note with it: read-out: 5LOX IC50 ± SEM. As to the method: The lipoxygenase inhibition assay on the synthesized compounds was carried out as per the standard reported method. […] The 5-LOX enzyme solution was also prepared at a strength of 10,000 units/mL. The linoleic acid (80 mM) was employed as a substrate in lipoxygenase assay. The buffer (phosphate) was also prepared for the assay having 50 mM strength and a pH of 6.3. The samples of synthesized compounds (250 µL), phosphate buffer (250 µL) and mixture of the enzyme were mixed and incubated for five minutes. Afterwards, the solution of the substrate (0.6 mM, 1000 µL) was mixed with lipoxygenase enzyme mixture with shaking. […] The percent inhibition was calculated as per the standard method. […]
91- 7, GmbH USA). these all were purchased from Sigma Aldrich Germany. Buffer solution
containing (KH2PO4 & K2HPO4), was of best quality with high purity. […]

Another data set relates to albino mice. In words: Acute toxicity. The data set is classed as in vivo. The note with it: highest dose 2000 mg/kg. An excerpt:
Before testing our selected compounds for in vivo experiments, we performed the toxicity test as per the protocol. Four groups of animals were labelled, with eight animals in each group. The control group was given normal saline, while other groups were given different concentrations of the selected compounds.

Sequence of COX-1 (P23219 24-599): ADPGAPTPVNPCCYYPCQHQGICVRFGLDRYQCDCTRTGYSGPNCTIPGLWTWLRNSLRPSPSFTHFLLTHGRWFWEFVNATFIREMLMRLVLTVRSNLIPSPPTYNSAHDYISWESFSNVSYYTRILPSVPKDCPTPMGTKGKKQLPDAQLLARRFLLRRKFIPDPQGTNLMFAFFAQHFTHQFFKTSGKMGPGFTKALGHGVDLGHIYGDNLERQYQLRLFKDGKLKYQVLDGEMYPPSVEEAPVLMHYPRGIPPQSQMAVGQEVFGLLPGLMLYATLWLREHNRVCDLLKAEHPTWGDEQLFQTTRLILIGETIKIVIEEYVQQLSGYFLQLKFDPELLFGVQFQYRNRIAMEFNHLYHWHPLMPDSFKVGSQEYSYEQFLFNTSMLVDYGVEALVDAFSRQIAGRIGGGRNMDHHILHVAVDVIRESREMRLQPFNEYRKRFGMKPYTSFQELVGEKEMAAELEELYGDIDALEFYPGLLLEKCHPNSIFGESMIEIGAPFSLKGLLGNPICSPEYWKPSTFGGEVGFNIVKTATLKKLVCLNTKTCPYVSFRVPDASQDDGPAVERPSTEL

One may read the IC50 as the concentration needed to halve the response being measured. The melting point is the temperature of the solid-liquid transition. `CC(C)c1ccc(C[C@](C)(C=O)[C@@H](C[N+](=O)[O-])c2ccccc2)cc1` (mixture of isomers) [FM1, (2S,3S)-2-(4-isopropylbenzyl)-2-methyl-4-nitro-3-phenylbutanal] came in with a melting point of 149 to 151 °C. Also, 62.9 µM corresponded to half-maximal inhibition in data set [1] (IC50). On COX-1, the IC50 worked out at 14.8 ± 1.19 µM. At COX-2, the “SI (calculated selectivity index)” value is recorded as 12.2 and the concentration for half-maximal inhibition (IC50) was 1.21 ± 0.03 µM. The molecule further returned an IC50 in data set [2] of 54.4 µM. At 5-LOX, the half-inhibitory concentration (IC50) is 1.81 ± 0.11 µM.
Consider `CC(C)c1ccc(C[C@](C)(C=O)[C@@H](C[N+](=O)[O-])c2ccc(Cl)cc2)cc1` (mixture of isomers) [FM2, (2S,3S)-3-(4-chlorophenyl)-2-(4-isopropylbenzyl)-2-methyl-4-nitrobutanal], for which the melting point lay within 173 to 175 °C. The molecule also returned an IC50 in data set [1] of 42 µM. In addition, the half-inhibitory concentration (IC50) on COX-1 turned out to be 38 ± 1.65 µM. For the same molecule, on COX-2, the “SI (calculated selectivity index)” value is listed as 15.1 and the 50% inhibitory concentration (IC50) came to 2.51 ± 0.24 µM. The molecule further gave an IC50 in data set [2] of 55.4 µM. For the same molecule, on 5-LOX, the IC50 was 0.64 ± 0.01 µM.
In turn, `Cc1ccc([C@H](C[N+](=O)[O-])[C@@](C)(C=O)Cc2ccc(C(C)C)cc2)cc1` (mixture of isomers) [FM3, (2S,3S)-2-(4-isopropylbenzyl)-2-methyl-4-nitro-3-(p-tolyl)butanal] returned a melting point of 135 to 137 °C. In addition, the IC50 in data set [1] stood at 11.5 µM. In addition, at COX-1, the IC50 is 12.8 ± 1.08 µM. In addition, at COX-2, the “SI (calculated selectivity index)” value is listed as 3.6 and the IC50 came to 3.53 ± 0.18 µM. This molecule came in with a 50% inhibitory concentration (IC50) in data set [2] of 15.1 µM. Further, on 5-LOX, the 50% inhibitory concentration (IC50) was found to be 9.69 ± 0.99 µM.
Consider `COc1ccc([C@H](C[N+](=O)[O-])[C@@](C)(C=O)Cc2ccc(C(C)C)cc2)cc1` (mixture of isomers) [FM4, (2S,3S)-2-(4-isopropylbenzyl)-3-(4-methoxyphenyl)-2-methyl-4-nitrobutanal], for which the IC50 amounted to 25.8 µM in data set [1]; 31.7 ± 1.37 µM at COX-1; 0.74 ± 0.03 µM at COX-2; 21.1 µM in data set [2]; 0.98 ± 0.12 µM on 5-LOX. Also, the “SI (calculated selectivity index)” value on COX-2 is listed as 42.8. For the same molecule, the Acute toxicity observation result with albino mice is “very mild seizures and disturbances in breath (temporary)”.
With `COc1ccccc1[C@H](C[N+](=O)[O-])[C@@](C)(C=O)Cc1ccc(C(C)C)cc1` (mixture of isomers) [FM5, (2S,3S)-2-(4-isopropylbenzyl)-3-(2-methoxyphenyl)-2-methyl-4-nitrobutanal], the melting point is 129 to 131 °C. For the same molecule, in data set [1], the half-maximal inhibitory concentration (IC50) turned out to be 191 µM. Also, the concentration for half-maximal inhibition (IC50) at COX-1 was found to be 58.4 ± 2.08 µM. On COX-2, the “SI (calculated selectivity index)” value is listed as 7.2 and the 50% inhibitory concentration (IC50) was found to be 8.15 ± 0.98 µM. The same molecule returned an IC50 in data set [2] of 184 µM. Also, the IC50 at 5-LOX was found to be 16.3 ± 1.02 µM.
Regarding `CC(C)c1ccc(C[C@](C)(C=O)[C@@H](C[N+](=O)[O-])c2ccco2)cc1` (mixture of isomers) [FM6, (2S,3S)-3-(furan-2-yl)-2-(4-isopropylbenzyl)-2-methyl-4-nitrobutanal], the melting point was in the range of 161 to 163 °C. In data set [1], the IC50 is 37.7 µM. Further, the IC50 at COX-1 is 54.8 ± 1.95 µM. Also, on COX-2, the “SI (calculated selectivity index)” value is reported as 11.6 and the half-inhibitory concentration (IC50) came to 4.72 ± 0.08 µM. The same molecule came in with an IC50 in data set [2] of 49.7 µM. The IC50 at 5-LOX was 6.17 ± 0.23 µM.
As for `CC(C)c1ccc(C[C@](C)(C(=O)O)[C@@H](C[N+](=O)[O-])c2ccccc2)cc1` [FM7, (2S,3S)-2-(4-isopropylbenzyl)-2-methyl-4-nitro-3-phenylbutanoic Acid], the melting point fell in the range of 243 to 245 °C. Further, the 50% inhibitory concentration (IC50) in data set [1] amounted to 24.7 µM. The IC50 at COX-1 turned out to be 25.3 ± 1.22 µM. On COX-2, the “SI (calculated selectivity index)” value is given as 23.2 and the half-inhibitory concentration (IC50) amounted to 1.09 ± 0.01 µM. In addition, in data set [2], the half-inhibitory concentration (IC50) came out at 22.5 µM. For the same molecule, the half-inhibitory concentration (IC50) at 5-LOX came out at 0.73 ± 0.05 µM.
The molecule `CC(C)c1ccc(C[C@](C)(C(=O)O)[C@@H](C[N+](=O)[O-])c2ccc(Cl)cc2)cc1` [FM8] gave a melting point of 259 to 261 °C.
Still for that read-out and setting: as for `Cc1ccc([C@H](C[N+](=O)[O-])[C@](C)(Cc2ccc(C(C)C)cc2)C(=O)O)cc1` [FM9], the figure is 233 to 235 °C; as for `COc1ccccc1[C@H](C[N+](=O)[O-])[C@](C)(Cc1ccc(C(C)C)cc1)C(=O)O` [FM11], 211 to 213 °C.
Consider `O=C(O)c1cc(O)c(O)c(O)c1` [Gallic acid, reference compound], for which the IC50 in data set [1] worked out at 3.23 µM; in data set [2], 9.02 µM.
